Values quoted from earlier work in patent publication US20170143622A1, “STABLE LIQUID READY-TO-USE INJECTABLE FORMULATION OF BORTEZOMIB” (DR. REDDY'S LABORATORIES LIMITED, priority 2014, published 2017).
Where two headings read alike, the source gives them in different places.

Assays:
[1] = ethanol composition, 40° C. and 75% relative humidity, 1 month
[2] = polyethylene glycol (PEG)
[3] = 25° C.

## CC(C)C[C@H](NC(=O)[C@H](Cc1ccccc1)NC(=O)c1cnccn1)B(O)O [bortezomib, [(1R)-3-methyl-1-[[(2S)-1-oxo-3-phenyl-2[(pyrazinylcarbonyl)amino]propyl]amino]butyl]boronic acid]
[1]
  Bortezomib degraded to: 76%
[2]
  Solubility in PEG: insolubility
[3]; ethanol: normal saline solution (2:98, pH 2.8), bortezomib 0.5 mg/ml, 1 month
  Degradation: 20%
[3]; polyethylene glycol (PEG) 300: Ethanol:Water (40:10:50), 24 hours
  Degradation: ≤ 20%
[3]; propylene glycol (PG): Ethanol:Water (50:10:40), 8 months
  Degradation: 20%
